According to publication PMC10461232, “Structure-Based Design of Transport-Specific Multitargeted One-Carbon Metabolism Inhibitors in Cytosol and Mitochondria” (Journal of Medicinal Chemistry, 2023):
Like-named read-outs stand apart in the source and are kept apart here.

Tests used:
D4 (FRβ) CHO cells = assay: Growth inhibition, D4 CHO cells expressing human FRβ; type: cell-based, Chinese hamster; details: for IC50: Cricetulus griseus, CHO
HPAC (RFC/PCFT) cells = assay: Proliferation inhibition, HPAC pancreatic adenocarcinoma cells; type: cell-based, human; details: HPAC cells, folate- and glycine-free RPMI, 25 nM leucovorin, mean (SE)
Source text: (§1) The RFC-, PCFT-, and FR-null MTXRIIOua^R2–4 (R2), and RFC- (PC43-10), PCFT- (R2/PCFT4), FRα- (RT16), and FRβ- (D4) expressing CHO sublines were previously described.[62]−[64],[76] HPAC pancreatic cancer cells were generously provided by Dr. Yubin Ge (Karmanos Cancer Institute, Detroit, MI). Human pancreatic normal epithelial (HPNE) cells[67] were a gift from M. Oulette (University of Nebraska Medical Center, Omaha, NE). KB human nasopharyngeal carcinoma cells were purchased from the American Type Culture Collection (Manassas, VA). All human cell lines were validated by STR analysis by Genetica DNA Laboratories (Burlington, NC). Cell lines were tested for Mycoplasma by PCR using a Mycloplasma testing kit (Venor GeM Mycoplasma Detection Kit, Sigma). Frozen stocks were generated from authenticated Mycoplasma-free cultures.

[1] = tested on: R2/PCFT4 (PCFT) CHO cells; assay: Growth inhibition, R2/PCFT4 CHO cells expressing human PCFT; type: cell-based, Chinese hamster; details: Cricetulus griseus, 96 h, read-out: IC50 R2/PCFT4 (PCFT)
PC43-10 (RFC) CHO cells = assay: Growth inhibition, PC43-10 CHO cells expressing human RFC; type: cell-based, Chinese hamster; details: Cricetulus griseus, 96 h, read-out: IC50 PC43-10 (RFC)
RT16 (FRα) CHO cells = assay: Growth inhibition, RT16 CHO cells expressing human FRα; type: cell-based, Chinese hamster
[2] = tested on: R2 (MTXRIIOuaR2-4) CHO cells; assay: Growth inhibition, transporter-null R2 CHO cells; type: cell-based, Chinese hamster; details: Cricetulus griseus, 96 h, read-out: IC50 R2
KB (RFC/PCFT/FRα) cells = assay: Growth inhibition, KB nasopharyngeal carcinoma cells; type: cell-based, human; details: folate-free RPMI 1640, 2 nM leucovorin, mean (SE)
Protocol: The CHO cells were cultured in α-minimal essential medium (MEM) supplemented with 10% bovine calf serum (Fisher Scientific), penicillin (1000 U/mL)/streptomycin (1000 μg/mL), and 2 mM L-glutamine at 37 °C with 5% CO2. All of the R2 transfected cells (PC43-10, RT16, R2/PCFT4) were cultured in complete α-MEM media plus 1 mg/mL G418. Prior to the cytotoxicity assays (see below), RT16 and D4 cells were cultured for 3 days in complete folate-free RPMI 1640 (without added folate), and R2/PCFT4 and R2 cells were cultured in complete folate-free RPMI 1640 supplemented with dialyzed fetal bovine serum (Fisher Scientific) and 25 nM leucovorin plus 1 mg/mL G418. KB cells were routinely cultured in folate-free RPMI 1640 medium, supplemented with 10% fetal bovine serum (Fisher Scientific), penicillin-streptomycin solution, and 2 mM L-glutamine at 37 °C with 5% CO2.
For growth inhibition studies, cells (CHO, KB) were plated in 96-well dishes (∼2500–5000 cells/well, total volume of 200 μL medium) over a range of antifolate concentrations.[69],[77] The medium was folate-free RPMI 1640 with 10% dialyzed serum and antibiotics supplemented with 25 nM leucovorin for experiments with R2, PC43-10, and R2/PCFT4 cells. For experiments with RT16, D4, and KB cells, cells were cultured in folate-free RPMI medium with 10% dialyzed fetal bovine serum and antibiotics; the medium was supplemented with 2 nM leucovorin. […] Incubations were routinely for up to 96 h. Viable cells (reflecting cell viability) were assayed with Cell Titer Blue reagent (Promega, Madison, WI), with fluorescence measured (590 nm emission, 560 nm excitation) with a fluorescence plate reader.

HPNE (RFC) cells = assay: Proliferation inhibition, HPNE normal pancreatic epithelial cells; type: cell-based; details: Homo sapiens, folate- and glycine-free RPMI, 25 nM leucovorin
Source text: as §1

human GARFTase = target: T1, human GARFTase (Homo sapiens, UniProt P22102); assay: GARFTase inhibition assay, Ki (10-formyl THF to THF, absorbance 298 nm); type: biochemical; details: purified His-GARFTase, 40 μM 10-formyl THF, 37 °C; mean (SD), at least 3 replicates
T1 construct: formyltransferase domain of human GARFTase (residues 808–1010); made in house; host or cells: E. coli Rosetta (DE3)pLysS
T1 sequence (P22102 808-1010): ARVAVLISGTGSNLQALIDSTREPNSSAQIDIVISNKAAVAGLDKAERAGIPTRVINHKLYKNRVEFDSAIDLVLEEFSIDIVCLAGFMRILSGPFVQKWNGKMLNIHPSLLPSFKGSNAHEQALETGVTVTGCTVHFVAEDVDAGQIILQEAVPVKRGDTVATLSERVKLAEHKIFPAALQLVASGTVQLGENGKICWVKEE

human ATIC = target: T2, human ATIC (Homo sapiens, UniProt P31939); assay: AICARFTase (ATIC) inhibition assay, Ki; type: biochemical; details: for Ki: purified His-ATIC, AICARFTase activity, 50 μM 10-formyl THF, 25 °C, mean (SD), at least 3 replicates
T2 construct: N-terminal His6-tagged full-length human ATIC; made in house; host or cells: E. coli Rosetta (DE3)pLysS
T2 sequence (P31939 whole entry): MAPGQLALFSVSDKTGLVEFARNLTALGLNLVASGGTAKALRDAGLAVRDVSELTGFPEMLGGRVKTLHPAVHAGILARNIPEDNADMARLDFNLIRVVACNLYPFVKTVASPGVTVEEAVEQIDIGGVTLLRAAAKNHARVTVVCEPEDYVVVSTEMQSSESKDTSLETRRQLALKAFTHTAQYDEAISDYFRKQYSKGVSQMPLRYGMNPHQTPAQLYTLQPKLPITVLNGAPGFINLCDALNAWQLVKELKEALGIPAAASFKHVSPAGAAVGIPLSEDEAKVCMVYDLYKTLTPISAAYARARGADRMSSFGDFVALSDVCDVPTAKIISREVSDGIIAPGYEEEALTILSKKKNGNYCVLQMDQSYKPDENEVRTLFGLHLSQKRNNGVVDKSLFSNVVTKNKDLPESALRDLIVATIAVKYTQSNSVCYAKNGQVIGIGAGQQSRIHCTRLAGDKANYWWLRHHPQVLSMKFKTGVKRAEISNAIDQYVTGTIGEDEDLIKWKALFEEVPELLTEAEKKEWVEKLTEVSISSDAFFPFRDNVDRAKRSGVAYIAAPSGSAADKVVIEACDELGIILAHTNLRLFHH
Protocol: The cells were grown at 37 °C in 1 L cultures of LB media containing […] and […] until OD600 reached 0.6. Protein expression was induced by the addition of isopropyl β-D1-thiogalactopyranoside (IPTG, 500 μM).
His-ATIC was purified by Ni-NTA chromatography (Gold Biotechnology).[36] […] His-ATIC was eluted in 1 column volume fractions, 5 times with buffer containing 300 mM imidazole, 25 mM Tris-HCl, pH 7.5, 300 mM NaCl, and 5 mM β-Me. Size exclusion chromatography on a Superdex 200 16/60 (GE Healthcare) column was used for final purification using 20 mM Tris-HCl, pH 7.5, 150 mM NaCl, 50 mM KCl, 5 mM EDTA, and 5 mM dithiothreitol.
MTHFD2 activities were assayed by a reaction with methylene THF and NAD^+. NADH production was measured by fluorescence (excitation 340 nm, emission 480 nm). Reaction conditions included 100 nM MTHFD2, 5 μM methylene THF, and concentrations of small-molecule inhibitor ranging from 0.02 nM to 2000 nM; NAD^+ (2.5 mM) was added to initiate the reaction. The reaction buffer consisted of 50 mM Tris-HCl, pH 7.5, 250 mM NaCl, 5 mM magnesium chloride, 5% glycerol, and 0.5 mM TCEP. […] To assay SHMT1 or SHMT2 (SHMT1/2) enzymes, a coupled reaction with His-MTHFD2 in 200-fold molar excess was used where the production of NADH was monitored by fluorescence with excitation at 360 nm and emission at 470 nm at 25 °C. The reactions contained 5 nM His-SHMT1/2, 50 μM THF, 20 mM serine, 10 μM His-MTHFD2, 2.5 mM NAD^+, and a range of inhibitor concentrations (final concentrations). The reactions were performed in buffer containing 20 mM sodium phosphate, pH 7.5, 100 mM KCl, 0.2 mM EDTA, and 5 mM β-Me. […] To calculate IC50 values for each inhibitor, initial velocities were graphed as a function of inhibitor concentrations and fit with a three-parameter nonlinear regression (GraphPad Prism 8.0). The equation [Ki = IC50/([S]/KM + 1)] was used to convert IC50’s to Ki values.

SHMT1 = target: T3, SHMT1 (Homo sapiens, UniProt P34896); assay: SHMT1 inhibition assay coupled with MTHFD2, Ki; type: biochemical; details: purified His-SHMT1, 50 μM THF, 25 °C; mean (SD), at least 3 replicates
T3 construct: full-length SHMT1 with an N-terminal His6-tag; made in house; host or cells: E. coli Rosetta (DE3)pLysS
T3 sequence (P34896 1-483): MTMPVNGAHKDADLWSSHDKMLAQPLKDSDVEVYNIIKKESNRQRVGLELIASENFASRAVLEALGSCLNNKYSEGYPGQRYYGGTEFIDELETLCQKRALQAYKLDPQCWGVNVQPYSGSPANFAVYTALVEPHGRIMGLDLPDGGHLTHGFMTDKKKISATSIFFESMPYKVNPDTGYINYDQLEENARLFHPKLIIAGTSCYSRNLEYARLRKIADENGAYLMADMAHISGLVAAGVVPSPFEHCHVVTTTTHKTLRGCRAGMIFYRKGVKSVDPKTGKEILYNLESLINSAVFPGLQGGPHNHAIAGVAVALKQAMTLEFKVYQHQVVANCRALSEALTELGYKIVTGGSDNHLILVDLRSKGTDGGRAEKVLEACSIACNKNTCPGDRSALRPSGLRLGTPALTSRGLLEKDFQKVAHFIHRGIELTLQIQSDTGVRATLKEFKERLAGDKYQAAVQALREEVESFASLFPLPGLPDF
Protocol: Kinetic measurements were recorded in triplicate using a flat, black-bottom, black-walled 96-well plate (Greiner Bio-One, 655900) and a BioTek Synergy Neo2 Plate Reader. […] To assay SHMT1 or SHMT2 (SHMT1/2) enzymes, a coupled reaction with His-MTHFD2 in 200-fold molar excess was used where the production of NADH was monitored by fluorescence with excitation at 360 nm and emission at 470 nm at 25 °C. The reactions contained 5 nM His-SHMT1/2, 50 μM THF, 20 mM serine, 10 μM His-MTHFD2, 2.5 mM NAD^+, and a range of inhibitor concentrations (final concentrations). The reactions were performed in buffer containing 20 mM sodium phosphate, pH 7.5, 100 mM KCl, 0.2 mM EDTA, and 5 mM β-Me. A BioTek Synergy Neo2 Plate Reader was used to record kinetic measurements in triplicate in a UV-transparent 96-well plate (Costar 3635) for GARFTase and AICARFTase assays and a black-well, black-bottom 96-well plate (Corning 3603). To calculate IC50 values for each inhibitor, initial velocities were graphed as a function of inhibitor concentrations and fit with a three-parameter nonlinear regression (GraphPad Prism 8.0). The equation [Ki = IC50/([S]/KM + 1)] was used to convert IC50’s to Ki values.

[3] = 96 h, CHO cells expressing human FRβ, 96 h, 2 nM leucovorin, mean (SE), read-out: IC50 D4 (FRβ)
[4] = CHO cells expressing human PCFT, 25 nM leucovorin, mean (SE)
[5] = CHO cells expressing human RFC, 25 nM leucovorin, mean (SE)
[6] = Cricetulus griseus, 96 h, CHO cells expressing human FRα, 96 h, 2 nM leucovorin, mean (SE), read-out: IC50 RT16 (FRα)
[7] = transporter-null CHO cells, 25 nM leucovorin, mean (SE)
[8] = CHO cells expressing human FRα, 96 h, 2 nM leucovorin, mean (SE), read-out: IC50 RT16 (FRα)

IC50 (HPAC (RFC/PCFT) cells; Homo sapiens, HPAC) [nM] | IC50 (KB (RFC/PCFT/FRα) cells; Homo sapiens, KB) [nM] | Ki (human ATIC) [nM] | SMILES | IC50 [1] [nM] | IC50 (KB (RFC/PCFT/FRα) cells) [nM] | IC50 (HPNE (RFC) cells) [nM] | Ki (human GARFTase) [nM] | IC50 (D4 (FRβ) CHO cells; [3]) [nM] | IC50 [1, 4] [nM] | IC50 (PC43-10 (RFC) CHO cells; [5]) [nM] | IC50 (RT16 (FRα) CHO cells; [6]) [nM] | IC50 [2, 7] [nM] | IC50 (RT16 (FRα) CHO cells; [8]) [nM] | other results
310 | 6.73 | 13400 | Nc1nc2ccn(CCCc3ccc(C(=O)N[C@@H](CCC(=O)O)C(=O)O)cc3)c2c(=O)[nH]1 [Compound 2] |  |  | > 5000 |  | 2.37 | 191 | 41.9 | 49.9 | > 1000 |  | difference between D4 (FRβ) and RT16 (FRα) IC50 (D4 (FRβ) CHO cells; RT16 versus D4 CHO cells): 20- to 40 fold; IC50 (HPAC (RFC/PCFT) cells): 310 nM
3210 | 2.58 |  | Nc1nc2ccn(CCCCc3ccc(C(=O)N[C@@H](CCC(=O)O)C(=O)O)s3)c2c(=O)[nH]1 [Compound 16] |  |  | > 5000 |  |  | > 1000 | > 1000 | < 3 | > 1000 | 2.82 | Ki (SHMT1): 1040 nM

Further lines, the compound ahead of its results:

SMILES | IC50 (HPAC (RFC/PCFT) cells; Homo sapiens, HPAC) [nM] | IC50 (KB (RFC/PCFT/FRα) cells; Homo sapiens, KB) [nM] | Ki (human ATIC) [nM] | IC50 [1] [nM] | IC50 (KB (RFC/PCFT/FRα) cells) [nM] | IC50 (HPNE (RFC) cells) [nM] | Ki (human GARFTase) [nM] | IC50 (D4 (FRβ) CHO cells; [3]) [nM] | IC50 [1, 4] [nM] | IC50 (PC43-10 (RFC) CHO cells; [5]) [nM] | IC50 (RT16 (FRα) CHO cells; [6]) [nM] | IC50 [2, 7] [nM] | IC50 (RT16 (FRα) CHO cells; [8]) [nM] | other results
Nc1nc2ccn(CCCCc3ccc(C(=O)N[C@@H](CCC(=O)O)C(=O)O)c(F)c3)c2c(=O)[nH]1 [Compound 1, (4-(4-(2-Amino-4-oxo-3,4-dihydro-5H-pyrrolo[3,2-d]pyrimidin-5-yl)butyl)-2-fluorobenzoyl)-L-glutamic Acid] | 196 | 1.3 |  | 479 | 1.25 | > 5000 | 3130 |  |  |  |  |  |  | IC50 (D4 (FRβ) CHO cells; read-out: IC50 FRβ (cell-based inhibition), Figure 14, from Table 3 (D4 cells)): 1 nM; IC50 (PC43-10 (RFC) CHO cells): 224 nM; IC50 (RT16 (FRα) CHO cells; Cricetulus griseus, RT16, read-out: IC50 FRα (cell-based inhibition), Figure 14, from Table 3 (RT16 cells)): 1 nM; IC50 ([2]; CHO): > 1000 nM
Nc1nc2ccn(CCCSc3ccc(C(=O)N[C@@H](CCC(=O)O)C(=O)O)cc3)c2c(=O)[nH]1 [Compound 7, (4-((3-(2-Amino-4-oxo-3,4-dihydro-5H-pyrrolo[3,2-d]pyrimidin-5-yl)propyl)thio)benzoyl)-L-glutamic Acid] | > 5000 | 31.5 | 4810 | > 1000 | 31.5 | > 5000 |  |  |  | > 1000 | < 3 | > 1000 | 3.13 | 
Nc1nc2ccn(CCCCc3csc(C(=O)N[C@@H](CCC(=O)O)C(=O)O)c3F)c2c(=O)[nH]1 [Compound 14, (4-(4-(2-Amino-4-oxo-3,4-dihydro-5H-pyrrolo[3,2-d]pyrimidin-5-yl)butyl)-3-fluorothiophene-2-carbonyl)-L-glutamic Acid] | 1600 | 6 | 930 |  |  | > 5000 | 2490 | 6.2 | > 1000 | > 1000 | 19.8 | > 1000 |  | fold better than 1, ATIC (human ATIC; ratio of Ki values relative to compound 1): ~4 fold
